Literature values, collected in US5780494A, “Piperidinyl-terminated alkylamino ethynl alanine amino diol compounds for treatment of hypertension” (G. D. Searle & Co., priority 1997, dated 1998).
Square brackets hold non-standard residues; d marks the D form. Peptide text beside a SMILES is read from it. * marks the point of attachment. Sta = CC(C)C[C@H](N)[C@@H](O)CC(=O)O; Isovaleryl = CC(C)CC(=O)*

Assays:
[1] = tested on: renin
[2] = tested on: pepsin
[3] = tested on: cathepsin D
[4] = tested on: hog renin; settings: after the injection of hog renin into nephrectomized rats

CC(C)CC(=O)N[C@H](C(=O)N[C@H](C(=O)N[C@@H](CC(C)C)[C@@H](O)CC(=O)N[C@@H](C)C(=O)N[C@@H](CC(C)C)[C@@H](O)CC(=O)O)C(C)C)C(C)C [pepstatin] (Isovaleryl-VV[Sta]A[Sta]-OH)
inhibition of renin [1]: inhibitor | inhibition of pepsin [2]: inhibitor | inhibition of cathepsin D [3]: inhibitor | blood pressure reduction [4]: found to reduce blood pressure
